The subject of this data set is Human TK6 lymphoblasts. The experiment in a line: Induction of point mutation of genomic DNA by mutagen in cultured cells, detected by sequencing 100 copies of genomic DNA. The format is cell-based. The settings on record: TK6 cells exposed to 0, 0.1, 0.3, 1, 3, 10 or 30 μM for 24 hours, collected day 7; variants with ratio 0.8 to 10% counted; three independent analyses; FIG. 2. How it is done: In Example 1, N-nitroso-N-methylurea (hereinafter referred to as “MNU”) that was a mutagen was administered to cultured cells, to induce a point mutation of genomic DNA. Then, mutation was detected by the detection method of this embodiment, and the appearance frequency of the mutation was calculated. This analysis was independently performed three times.
Human TK6 lymphoblasts (hereinafter, referred to as “TK6 cell”) were obtained from American Type Culture Collection. On day 0, 1×10^5 cells of TK6 cells were seeded on a 10 cm plate. On day 1, the TK6 cells were exposed to MNU (Sigma) in a concentration of 0, 0.1, 0.3, 1, 3, 10 or 30 μM for 24 hours. On day 7, the number of cells was counted, and the cells were collected. Then, genomic DNA was extracted by phenol/chloroform method.
The copy number of the extracted genomic DNA was determined quantitatively by real-time PCR using SYBR (registered trademark) green I (BioWhittaker Molecular Applications) and iCycler Thermal Cycler (Bio-Rad Laboratories, Inc.). In the table, “F” means a forward primer, and “R” means a reverse primer. Each sample was measured using three kinds of primers. […]
A sample containing 100 copies of genomic DNA was prepared, based on the measurement result of the copy number. […] The average number of reads of sequencing was 5,000. Among the analyzed 48,587 bases, 15,724 bases were selected. […]

SMILES strings stand for the structures.

With `CN(N=O)C(N)=O` [MNU, N-nitroso-N-methylurea], the “appearance frequency of point mutation (somatic mutation induced by mutagen)” value is “correlation between the administration amount of MNU and the accumulation of mutations”.

(Values after patent publication US20170101670A1, “METHOD FOR DETECTING RARE MUTATION” (NATIONAL CANCER CENTER, priority 2015, published 2017).)
